Test results: patent US7250269B2, “Composition for assaying glycoprotein” (Asahi Kasei Pharma Corporation, priority 2001, dated 2007)
Like-named read-outs stand apart in the source and are kept apart here. Blank lines part the entries; values can stand above or below the molecule they belong to.

What was measured:
Ascorbic acid oxidase = target: T1, Ascorbic acid oxidase (Cucurbita maxima, UniProt P24792); conditions: R-1 stored 24 hours at room temperature; FIG. 4
T1 sequence (P24792 31-579): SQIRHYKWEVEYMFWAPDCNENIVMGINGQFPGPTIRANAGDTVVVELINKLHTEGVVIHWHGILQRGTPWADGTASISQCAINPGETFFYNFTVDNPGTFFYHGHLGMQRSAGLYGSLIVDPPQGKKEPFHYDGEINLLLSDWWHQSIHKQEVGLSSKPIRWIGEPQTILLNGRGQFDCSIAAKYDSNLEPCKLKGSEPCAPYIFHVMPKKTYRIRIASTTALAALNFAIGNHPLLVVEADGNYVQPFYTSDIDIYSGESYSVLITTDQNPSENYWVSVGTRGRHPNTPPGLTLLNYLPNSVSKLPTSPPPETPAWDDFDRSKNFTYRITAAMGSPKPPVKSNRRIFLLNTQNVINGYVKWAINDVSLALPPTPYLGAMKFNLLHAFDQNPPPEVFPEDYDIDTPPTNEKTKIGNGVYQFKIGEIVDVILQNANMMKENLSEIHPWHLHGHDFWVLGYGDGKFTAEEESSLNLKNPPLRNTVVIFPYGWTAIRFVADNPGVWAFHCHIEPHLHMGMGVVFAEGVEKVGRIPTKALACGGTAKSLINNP
Procedure: An ascorbic acid-addition substrate solution was prepared by adding one volume of ascorbic acid (1 g/dl) (manufactured by Kokusan Chemical Co., Ltd.) to nine volume of human pool blood serum. A solution prepared by adding distilled water instead of ascorbic acid was used as a control substrate solution.
8 μl of the control substrate solution or ascorbic acid-addition substrate solution was added to 240 μl of R-1 incubated at 37° C. The reaction was initiated at 37° C. and exactly 5 minutes thereafter 80 μl of R-2 was added. Absorbance at 555 nm was measured before the addition of R-2 and five minutes after the addition of R-2. ΔA0 was calculated by subtracting the absorbance change obtained from a blank sample using distilled water instead of the substrate solution from the absorbance change obtained from the absorbance measurement on the control substrate solution and ascorbic acid-addition substrate solution. The same reaction solution R-1 was stored at room temperature for 24 hours, and the absorbance was measured in the same manner to calculate ΔA24. The ratio of ΔA0 and ΔA24 obtained from the ascorbic acid-addition substrate solution was calculated assuming the absorbance change obtained from the control substrate solution as 100.

ASOx = test: Storage of ASOx with protease in HEPES buffer solution pH 8.0 (inventors' investigation); type: biochemical; conditions: pH 8.0, protease and ASOx present
[1] = test system: heat-stable type ascorbic acid oxidase (ASO-312); test: Effect of buffer agent types on stabilization of ascorbic acid oxidase ASO-312 in the presence of protease; type: biochemical; conditions: pH 8.0, stored two days at room temperature
Procedure: 1 ml of the above mixed reaction reagent is placed in a small test tube and preheated at 30° C. for five minutes, then 0.10 ml of an appropriately diluted enzyme solution is added. The mixture is stirred to initiate the reaction. After the reaction for exactly 5 minutes, 3.0 ml of 0.2 N hydrochloric acid aqueous solution is added to terminate the reaction. Absorbance (As) at a wavelength of 245 nm is measured. For the blank test, 1 ml of the above reaction solution is placed in a small test tube and preheated at 30° C. for five minutes, then 3.0 ml of 0.2 N hydrochloric acid aqueous solution is added to terminate the reaction. 0.10 ml of an appropriately diluted enzyme solution is added and the mixture is stirred to measure the absorbance (Ab) at a wavelength of 245 nm. The enzyme activity is determined from the difference (Ab-As) between the absorbance (As) after the enzyme reaction and the blank test absorbance (Ab). The amount of enzyme oxidizing 1 μmol of ascorbic acid into dehydroascorbic acid in one minute at 30° C. is defined as 1 U. The calculation formula is shown below. Activity (U/ml)=[(Ab−As)/10.0]×[⅕]×[4.10/0.10]×[1/B] • 10.0: Molecular absorbance coefficient (mM) of ascorbic acid at 245 nm under the conditions of pH 1.0. • 5: Reaction time (min) • 4.10: Total reaction solution (ml) • 0.10: Amount of enzyme sample solution used for the reaction • B: Dilution magnification of the enzyme solution
The above reaction solutions were prepared using various buffer agents. A portion of each solution was used as a control after measuring the ascorbic acid oxidase activity. The above-described <<Method for Measuring the Activity of Ascorbic Acid Oxidase (ASOx)>> was employed for the activity measurement. The remaining portion of reaction solutions was stored for two days at room temperature, and the activity was measured in the same manner. The ratio of the activity after storage for two days at room temperature to the activity of the control was calculated to compare the stability of ascorbic acid oxidases.

[2] = target: T2, Ascorbic acid oxidase (ASO-311) (Cucurbita maxima, UniProt P24792); conditions: pH 8.0, stored two days at room temperature
T2 sequence (P24792 31-579): T1 sequence (P24792 31-579)

[3] = FOD enzyme activity / substrate specificity on glycated lysine; type: biochemical; conditions: glycated lysine / glycated valine
Procedure: 164 strains of mutant colonies obtained in Example 15 were cultured for 16 hours at 30° C. in 1.5 ml of a 3.7% BHI liquid medium (manufactured by DIFCO Co.) containing 50 μg/ml of ampicillin and 1 mM of IPTG. 1 ml of the culture broth was centrifuged (15,000 G for one minute at 4° C.) to collect cells. 200 μl of 10 mM Tris-HCl buffer solution (pH 8.0) was added to the collected cells. After crushing the cells using an ultrasonic breaker, the mixture was centrifuged (14,000 G for five minutes at 4° C.) to obtain a cell extract as a supernatant.
The glycated amino acid substrate specificity of FOD-mutated recombinant contained in the cell extract prepared in Example 16 was measured using the above-mentioned FOD enzyme activity measuring method.
Synthesis of an oligonucleotide having the base sequence of 1-27 in the sequence table Sequence ID No. 7 was consigned to an outside source (BEX Co., Ltd.). The oligonucleotide was subjected to the site-directed mutagenesis using the Mutan-K kit (manufactured by Takara Shuzo Co., Ltd.) according to the manual attached to the kit. The mutant gene obtained was incorporated again into the expression plasmid pTV119N, introduced into Escherichia coli host, and cultured at 30° C. for 16 hours in a 3.7% BHI liquid medium containing 50 μg/ml of ampicillin and 1 mM of IPTG to produce mutant FOD protein.

[4] = test system: G-I substrate solution (Glovenin I: immunoglobulin preparation); test: Activity of various proteases on G-I substrate solution (R-FOD assay); type: biochemical; conditions: pH 8.0, 37° C. for 30 minutes
Procedure: (§1) • 1. […] GA % was assayed using a glycated albumin analyzer (GAA-2000, manufactured by ARKRAY, Inc.). • 2. G-II and III substrate solutions, FRA value=48 μmol/L [Globulins Human Cohn Fraction II and III; 16.9 mg/ml (manufactured by Sigma-Aldrich Co.)] • 3. G-IV substrate solution, FRA value=26 μmol/L [Globulins Human Cohn Fraction IV; 6 mg/ml (manufactured by Sigma-Aldrich Co.)] • 4. G-I substrate solution, FRA value=77 μmol/L [Glovenin I: immunoglobulin preparation (manufactured by Takeda Chemical Industries, Ltd.)] • 5. Hb substrate solution: Hemoglobin Human; 55 mg/ml, glycated hemoglobin rate: HbA1c=4.5% [manufactured by Sigma-Aldrich Co., the HbA1c value was determined using a glycated hemoglobin analyzer (Hi-Auto A1C HA-8150, manufactured by ARKRAY, Inc.)]. […]
(§2) 300 μl of the above reaction solution for assaying glycated amino acids was added to a cell and incubated for three minutes at 37° C. […] Absorbances (A0 blank and A1 blank) were measured. The reaction of protease with glycated proteins is indicated by the following absorbance change. ΔA=(A1−A0)−(A1 blank−A0 blank)

[5] = target: T3, Hb substrate solution: Hemoglobin Human (Homo sapiens, UniProt P68871+P69905); test: Activity of various proteases on Hb substrate solution (R-FOD assay); type: biochemical; conditions: pH 8.0; 37° C. for 60 minutes
T3 construct: purchased Sigma-Aldrich Co
Procedure: as §1, §2

[6] = target: T4, HSA substrate solution; Albumin Human (Homo sapiens, UniProt P02768); test: Activity of various proteases on HSA substrate solution (released glycated amino acids/peptides assayed with R-FOD); type: biochemical; conditions: pH 8.0; 37° C. for 30 minutes
T4 construct: purchased Sigma-Aldrich Co
Procedure: as §1, §2

R-FOD-II = test: Stabilization of enzyme reacting at least with glycated amino acid; type: biochemical
Procedure: 8 μl of a sample was added to 240 μl of the proteolytic reagent incubated at 37° C. […] A relative sensitivity for the experiment using the reagent containing a stabilizer to the experiment using the reagent not containing a stabilizer was calculated assuming that ΔA0 obtained using the reagent not containing a stabilizer and used without storing is 100%.

Protease type-XXIV [7] = test: Screening of globulin component-selective protease inhibitors using Hb substrate solution; type: biochemical, Bacillus; conditions: Hb substrate solution instead of HSA
Procedure: The same measurement was conducted using the Hb substrate solution instead of the HSA substrate solution, provided that when the Hb substrate solution was used, proteins were removed using trichloroacetic acid after the reaction with R-1, then the residue was neutralized and R-2 was added.

Protease type-XXIV [8] = test: Screening of globulin component-selective protease inhibitors (HSA substrate with/without γ-globulin); type: biochemical, Bacillus; conditions: control 23.8
Description: Using protease type-XXIV (manufactured by Sigma-Aldrich Co.) having high reactivity with the HSA substrate solution, components that decrease the protease reaction with the above globulin substrate solutions were screened based on the HSA substrate solution.
In the R-1 proteolytic reagent, as the deoxycholic acid amide, bisgluconamidopropyldeoxycholamide was used; as the cholic acid amide, 3-[(3-cholamidopropyl)dimethvlammonio]propane sulfonic acid, 3-[(3-cholamidopropyl)dimethylammonio]-2-hydroxypropane sulfonic acid, or bisgluconamidopropylcholamide was used; as the quaternary ammonium salt, benzyltriethylan chloride or benzyltri-n-butylammonium chloride was used; and as quatemary ammonium salt-type cationic surfactant, lauryltrimethylammonium chloride or lauryldimethylamine oxide was used.
• 1. HSA substrate solution: Albumin Human: 40 mg/ml, GA %=10.5% [manufactured by Wako Pure Chemical Industries, Ltd., the albumin concentration in the substrate solution was assayed using an albumin assay kit (albumin II-HA Test Wako; manufactured by Wako Pure Chemical Industries, Ltd.). GA % was assayed using a glycated albumin analyzer (GAA-2000, manufactured by ARKRAY, Inc.). • 2. γ-globulin addition substrate solution, 17.0 mg/ml of γ-globulin [γ-Globulins Human (manufactured by Sigma-Aldrich Co.), Fructosamine value=34 μM] was added to the above HSA substrate solution. <Reaction Procedure>
Absorbances at a wavelength of 546 nm were measured before and after the addition of R-2. The difference of the two measurements was regarded as the absorbance change. The same procedure was conducted using distilled water instead of the substrate to prepare a blank sample. In addition, a reaction solution without the addition of the globulin-selective protease inhibitor was used as a control.
ΔA (HSA) was calculated by subtracting the absorbance change of the blank sample from the absorbance change obtained for the HSA substrate solution. ΔA(+γ-globulin) was calculated by subtracting the absorbance change of the blank sample from the absorbance change obtained for the substrate solution to which γ-globulin was added. Effect of γ-globulin addition=(ΔA(+γ-globulin)−ΔA(HSA))/ΔA(HSA)×100(%)

T4 sequence (P02768 25-609): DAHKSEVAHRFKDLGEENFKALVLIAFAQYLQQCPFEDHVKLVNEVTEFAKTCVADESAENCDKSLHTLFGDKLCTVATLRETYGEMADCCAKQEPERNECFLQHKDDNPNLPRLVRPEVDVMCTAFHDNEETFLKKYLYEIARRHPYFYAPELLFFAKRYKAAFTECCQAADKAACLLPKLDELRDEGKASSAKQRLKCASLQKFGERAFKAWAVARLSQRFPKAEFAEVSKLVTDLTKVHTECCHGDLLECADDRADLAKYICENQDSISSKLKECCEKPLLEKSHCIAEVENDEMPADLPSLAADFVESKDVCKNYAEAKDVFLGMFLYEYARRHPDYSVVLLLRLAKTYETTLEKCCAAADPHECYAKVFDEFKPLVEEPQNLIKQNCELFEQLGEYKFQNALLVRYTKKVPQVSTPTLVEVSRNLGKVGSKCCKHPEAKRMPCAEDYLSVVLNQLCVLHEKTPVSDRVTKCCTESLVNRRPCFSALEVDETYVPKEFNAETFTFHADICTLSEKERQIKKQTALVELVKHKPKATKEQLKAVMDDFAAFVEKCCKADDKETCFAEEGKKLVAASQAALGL
T3 sequence (P69905 2-142 limits assumed): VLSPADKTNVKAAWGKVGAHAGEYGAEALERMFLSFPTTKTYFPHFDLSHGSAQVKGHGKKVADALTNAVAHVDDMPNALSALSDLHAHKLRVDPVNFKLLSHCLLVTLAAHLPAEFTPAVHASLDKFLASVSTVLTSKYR
T3 sequence (P68871 2-147 limits assumed): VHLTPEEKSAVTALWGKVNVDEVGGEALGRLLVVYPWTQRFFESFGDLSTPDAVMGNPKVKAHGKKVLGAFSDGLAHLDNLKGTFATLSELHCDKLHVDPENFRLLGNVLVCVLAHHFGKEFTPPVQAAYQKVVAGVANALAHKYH

Molecule: O=S(=O)(O)CCN1CCN(CCO)CC1 [HEPES]
ascorbic acid eliminating capability after storing (Ascorbic acid oxidase): almost no ascorbic acid eliminating capability
ascorbic acid treating capability after storage (ASOx; one day at 37° C.): lost almost entirely
ascorbic acid treating capability after storage (ASOx; two weeks at 10° C.): lost almost entirely
Relative activity (%) ASO-312 ([1]; Pronase): 37%
Relative activity (%) ASO-312 ([1]; Protease type XXIV): 34%
Relative activity (%) ASO-311 ([2]; Pronase): 17%
Relative activity (%) ASO-311 ([2]; Protease type XXIV): 31%

Molecule: N=C(N)NCCC[C@H](N)C(=O)O [Reactive 327th amino acid Arginine]
Reactivity ratio, glycated lysine / glycated valine [3]: 440

ΔA Hb [5]: 17 mAbs
ΔA HSA [6]: 52 mAbs
Molecule: Pancreatin
ΔA Gl [4]: 100 mAbs

Molecule: C[C@@H](O)[C@H](N)C(=O)O [Reactive 327th amino acid Threonine]
Reactivity ratio, glycated lysine / glycated valine [3]: 927

Molecule: NCC(=O)O [glycine, Glycine]
decrease in performance of glycated amino acid assay reagent (R-FOD-II; storage for four weeks at 37° C.): almost no decrease in performance
stabilization effect on glycated amino acid assay reagent (relative sensitivity) (R-FOD-II; stored at 37° C. for two days, without stabilizer 30%, FIG. 6): stabilization effect
storage stability effect (R-FOD-II; stored in a liquid state in a refrigerator): one or more years
Kcat Reactivity ratio (a)/(b) [3]: 365

Molecule: Concanavalin A
effect of inhibiting a protease reaction with globulin (Protease type-XXIV [7]): effect of inhibiting a protease reaction with globulin
Effect of γ-globulin (%) (Protease type-XXIV [8]; additive concentration 0.21 mg/ml): 14.9%

ΔA Hb [5]: 7 mAbs
ΔA HSA [6]: 25 mAbs
Molecule: Chymotrypsin
ΔA Gl [4]: 103 mAbs

Molecule: C[N+](C)(C)CC(=O)O [Betaine]
effect of inhibiting a protease reaction with globulin (Protease type-XXIV [7]): effect of inhibiting a protease reaction with globulin
Effect of γ-globulin (%) (Protease type-XXIV [8]; additive concentration 0.10%): 7.6%
